In patent US7342027B2 (Yuhan Corporation, priority 2002, dated 2008):

Columns and labels:
Format in all cases: biochemical
[1] = target: T1, Cathepsin H (Calbiochem, 219388) (Homo sapiens, UniProt P09668); assay: Selectivity study: cathepsin H (L-Arg-pNA); settings: 1 hour at 40° C., read-out: Cathepsins (IC50, nM) H
T1 construct: purchased Calbiochem 219388
T1 sequence (P09668 98-335): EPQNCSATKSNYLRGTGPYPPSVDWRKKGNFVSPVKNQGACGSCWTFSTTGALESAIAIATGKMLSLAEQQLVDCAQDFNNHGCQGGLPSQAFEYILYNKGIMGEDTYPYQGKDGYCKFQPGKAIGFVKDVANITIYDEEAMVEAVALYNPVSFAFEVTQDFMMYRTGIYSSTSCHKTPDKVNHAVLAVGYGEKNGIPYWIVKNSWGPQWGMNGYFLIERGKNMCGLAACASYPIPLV
Experimental: (§1) Test 2: Selectivity Study
(§2) Selectivity study for the compounds of the present invention was performed using cathepsin C (Sigma, C8511), cathepsin G (Calbiochem, 219373), cathepsin H (Calbiochem, 219388), cathepsin L (Calbiochem, 219402), and cathepsin S (Eur. J. Biochem. 236, 558 (1996) as enzyme sources.
Cathepsin H (Calbiochem, 219388) was dissolved in 20 mM NaOAc, 1 mM EDTA-2Na and 100 mM NaCl buffer (pH 4.6). All inhibitors were prepared dimethyl sulfoxide (DMSO). In vitro assays for cathepsin H were conducted with L-Arg-pNA (BACHEM, 1-1160) as a substrate. Samples were pre-incubated for 5 minutes at 40° C. Reaction was initiated by the addition of enzyme to samples, which were then incubated for 1 hour at 40° C. The absorbance of p-nitroaniline released was monitored at 405 nm using spectrophotometer.
(§3) The concentrations of the test compounds, which inhibit 50% of cathepsin s C, G, H, L and S activity, are represented as IC50 in Table 2.

[2] = target: T2, Recombinant human cathepsin K (Homo sapiens, UniProt P43235); assay: Inhibition of cathepsin K activity (Z-Phe-Arg-AMC fluorescence assay); settings: 25 uM Z-Phe-Arg-AMC, pH 5.5, 1 hour at 37° C.
T2 construct: made in house
T2 sequence (P43235 115-329): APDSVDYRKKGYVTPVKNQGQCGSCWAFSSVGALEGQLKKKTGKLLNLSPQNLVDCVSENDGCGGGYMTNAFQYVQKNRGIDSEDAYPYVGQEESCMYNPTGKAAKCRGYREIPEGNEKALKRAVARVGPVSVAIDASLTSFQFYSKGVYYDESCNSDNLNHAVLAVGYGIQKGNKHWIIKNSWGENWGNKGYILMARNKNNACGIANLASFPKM
Outline: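 Z-Phe-Arg-AMC at 25 uM in 100 mM Na acetate pH 5.5 with 20 mM cysteine, 5 mM EDTA and 2% final DMSO; reaction started by adding enzyme, then 1 hour at 37° C. Fluorescence read at ex 360/em 460 nm; IC50 is the concentration giving 50% inhibition.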

[3] = target: T3, Cathepsin C (Sigma, C8511) (Bos taurus, UniProt Q3ZCJ8); assay: Selectivity study: cathepsin C (Gly-Phe-pNA); settings: 1 hour at 37° C., read-out: Cathepsins (IC50, nM) C
T3 construct: purchased Sigma C8511
T3 sequence (Q3ZCJ8 25-463): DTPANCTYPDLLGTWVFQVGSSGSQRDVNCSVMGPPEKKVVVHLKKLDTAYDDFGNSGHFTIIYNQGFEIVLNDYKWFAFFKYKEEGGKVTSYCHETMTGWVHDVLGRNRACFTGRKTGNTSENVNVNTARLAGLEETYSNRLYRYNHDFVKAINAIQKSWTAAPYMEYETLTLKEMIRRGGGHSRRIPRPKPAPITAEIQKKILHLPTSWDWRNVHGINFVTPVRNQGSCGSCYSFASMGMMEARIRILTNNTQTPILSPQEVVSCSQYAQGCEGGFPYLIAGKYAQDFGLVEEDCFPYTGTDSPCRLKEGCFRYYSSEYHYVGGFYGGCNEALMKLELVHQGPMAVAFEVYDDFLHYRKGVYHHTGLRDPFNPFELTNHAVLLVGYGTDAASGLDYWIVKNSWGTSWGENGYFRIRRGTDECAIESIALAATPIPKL
Experimental: as §1, §2
(§4) Cathepsin C (Sigma, C8511) was dissolved in D.W. buffer (pH 5.5). All inhibitors were prepared in dimethyl sulfoxide (DMSO). In vitro assays for cathepsin C were conducted with Gly-Phe-pNA (Sigma, G-0142) as a substrate. Samples were pre-incubated for 10 minutes at 37° C. Reaction was initiated by the addition of enzyme to samples, which were then incubated for 1 hour at 37° C. The absorbance of p-nitroaniline released was monitored at 405 nm using spectrophotometer.
as §3

[4] = target: Recombinant human Cathepsin S (Homo sapiens, UniProt P25774); assay: Selectivity study: cathepsin S (Z-Val-Val-AMC); settings: 30 minutes at 37° C., read-out: Cathepsins (IC50, nM) S
Recombinant human Cathepsin S, sequence (P25774 115-331): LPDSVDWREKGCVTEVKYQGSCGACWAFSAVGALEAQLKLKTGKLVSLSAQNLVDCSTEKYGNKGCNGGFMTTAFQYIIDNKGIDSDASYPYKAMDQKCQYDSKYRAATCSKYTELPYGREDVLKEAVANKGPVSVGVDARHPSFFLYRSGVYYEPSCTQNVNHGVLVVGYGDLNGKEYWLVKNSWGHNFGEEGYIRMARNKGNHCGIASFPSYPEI
Experimental: as §1, §2
Recombinant human Cathepsin S (Eur. J. Biochem. 236, 558 (1996) was dissolved in 0.1 M NaOAc 1 mM EDTA-4Na buffer (pH 5.5). All inhibitors were prepared in dimethyl sulfoxide (DMSO). In vitro assays for cathepsin S were conducted with Z-Val-Val-AMC (BACHEM, 1-1160) as a substrate. Samples were pre-incubated for 10 minutes at 4° C. Reaction was initiated by the addition of enzyme to samples, which were then incubated for 30 minutes at 37° C. The florescence of AMC (7-amino-4-methylcoumarin) released was monitored at 465 nm (excitation wavelength 360 nm), using fluorescence spectrophotometer.
as §3

[5] = target: T4, Cathepsin L (Calbiochem, 219402) (Homo sapiens, UniProt P07711); assay: Selectivity study: cathepsin L (Z-Phe-Arg-AMC); settings: 1 hour at 25° C., read-out: Cathepsins (IC50, nM) L
T4 construct: purchased Calbiochem 219402
T4 sequence (P07711 114-333): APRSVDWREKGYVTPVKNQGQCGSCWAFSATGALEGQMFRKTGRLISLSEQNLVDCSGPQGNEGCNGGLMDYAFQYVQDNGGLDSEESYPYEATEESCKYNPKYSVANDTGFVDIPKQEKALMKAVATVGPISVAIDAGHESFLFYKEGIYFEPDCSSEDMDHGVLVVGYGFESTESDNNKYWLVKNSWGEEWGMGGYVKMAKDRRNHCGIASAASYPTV
Experimental: as §1, §2
Cathepsin L (Calbiochem, 219402) was dissolved in 50 mM NaOAc buffer (pH 5.0). All inhibitors were prepared in dimethyl sulfoxide (DMSO). […] Samples were pre-incubated for 5 minutes at 25° C. Reaction was initiated by the addition of enzyme to samples, which were then incubated for 1 hour at 25° C. The fluorescence of AMC (7-amino-4-methylcoumarin) was monitored at 460 nm (excitation wavelength 360 nm), using fluorescence spectrophotometer.
as §3

[6] = target: T5, Cathepsin G (Calbiochem, 219373) (Homo sapiens, UniProt P08311); assay: Selectivity study: cathepsin G (Suc-Ala-Ala-Pro-Phe-pNA); settings: 1 hour at 25° C., read-out: Cathepsins (IC50, nM) G
T5 construct: purchased Calbiochem 219373
T5 sequence (P08311 21-244): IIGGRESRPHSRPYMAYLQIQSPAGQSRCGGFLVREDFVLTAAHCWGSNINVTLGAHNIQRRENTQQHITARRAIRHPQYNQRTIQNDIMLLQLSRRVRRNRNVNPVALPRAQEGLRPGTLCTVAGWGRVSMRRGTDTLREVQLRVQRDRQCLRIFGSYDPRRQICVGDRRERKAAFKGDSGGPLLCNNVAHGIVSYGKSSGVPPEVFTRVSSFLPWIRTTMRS
Experimental: as §1, §2
as §4, with “Cathepsin G (Calbiochem, 219373)” for “Cathepsin C (Sigma, C8511)”, “in 50 mM NaOAc and 150 mM NaCl” for “in D.W.”, “cathepsin G” for “cathepsin C”, “with Suc-Ala-Ala-Pro-Phe-pNA (Calbiochem, 219407)” for “with Gly-Phe-pNA (Sigma, G-0142)”, “at 25°” for “at 37°”
as §3

| SMILES | IC50 [1] [nM] | IC50 [2] [nM] | IC50 [3] [nM] | IC50 [4] [nM] | IC50 [5] [nM] | IC50 [6] [nM] |
| --- | --- | --- | --- | --- | --- | --- |
| O=C(NC1(C(=O)NC2CCN(c3ccccc3[N+](=O)[O-])CC2=O)CCCCC1)c1cc2ccccc2o1 (stereo not shown) [Example 2, 4-[N-[1-[N-(benzofuran-2-ylcarbonyl)amino]cyclohexanecarbonyl]amino]-1-(2-nitrophenyl)piperidin-3-one] | > 1000 | 5.97 | > 1000 | 2100 | 2100 | > 1000 |
| O=C(NC1(C(=O)NC2CCN(c3ccccc3N3CCCC3=O)CC2=O)CCCCC1)c1cc2ccccc2o1 (stereo not shown) [Example 44, 4-[N-[1-[N-(benzofuran-2-ylcarbonyl)amino]cyclohexanecarbonyl]amino]-1-[2-(pyrrolidin-2-one-1-yl)phenyl]piperidin-3-one] | > 690 | 4.96 | 394 | 460 | 574 | > 690 |
| O=C(NC1(C(=O)NC2CCN(c3ccccc3N3CC=CC3)CC2=O)CCCCC1)c1cc2ccccc2o1 (stereo not shown) [Example 57] | > 1000 | – | > 1000 | 731 | 285 | > 1000 |
| O=C(NC1(C(=O)NC2CCN(c3ccccc3-n3cccc3)CC2=O)CCCCC1)c1cc2ccccc2o1 (stereo not shown) [Example 60, 4-[N-[1-[N-(benzofuran-2-ylcarbonyl)amino]cyclohexanecarbonyl]amino]-1-[2-(pyrrol-1-yl)phenyl]piperidin-3-one] | > 1000 | – | > 1000 | > 150 | 103 | > 1000 |
| CN(C)C(=O)c1ccccc1N1CCC(NC(=O)C2(NC(=O)c3cc4ccccc4o3)CCCCC2)C(=O)C1 (stereo not shown) [Example 61, 4-[N-[1-[N-(benzofuran-2-ylcarbonyl)amino]cyclohexanecarbonyl]amino]-1-[2-(N,N-dimethylcarbamoyl)phenyl]piperidin-3-one] | > 1000 | – | > 1000 | > 300 | > 300 | > 1000 |
| CNC(=O)c1ccccc1N1CCC(NC(=O)C2(NC(=O)c3cc4ccccc4o3)CCCCC2)C(=O)C1 (stereo not shown) [Example 62, 4-[N-[1-[N-(benzofuran-2-ylcarbonyl)amino]cyclohexanecarbonyl]amino]-1-[2-(N-methylcarbamoyl)phenyl]piperidin-3-one] | > 1000 | – | > 1000 | > 450 | > 450 | > 1000 |
| O=C(NC1(C(=O)NC2CCN(c3ccccc3N3CCCS3(=O)=O)CC2=O)CCCCC1)c1cc2ccccc2o1 (stereo not shown) [Example 75] | > 1000 | 0.51 | > 1000 | > 150 | 32.5 | > 1000 |
| CS(=O)(=O)c1ccccc1N1CCC(NC(=O)C2(NC(=O)c3ccco3)CCCCC2)C(=O)C1 (stereo not shown) [Example 76, 4-[N-[1-[N-(furan-2-ylcarbonyl)amino]cyclohexanecarbonyl]amino]-1-(2-methanesulfonylphenyl)piperidin-3-one] | > 2460 | 8.17 | > 2460 | 204 | 971 | > 2460 |
| CC(C)S(=O)(=O)c1ccccc1N1CCC(NC(=O)C2(NC(=O)c3ccco3)CCCCC2)C(=O)C1 (stereo not shown) [Example 80, 4-[N-[1-[N-(furan-2-ylcarbonyl)amino]cyclohexanecarbonyl]amino]-1-(2-isopropylsulfonylphenyl)piperidin-3-one] | > 1000 | 5.05 | > 1000 | 109 | 381 | > 1000 |
| CS(=O)(=O)c1cc(F)ccc1N1CCC(NC(=O)C2(NC(=O)c3ccco3)CCCCC2)C(=O)C1 (stereo not shown) [Example 83, 4-[N-[1-[N-(furan-2-ylcarbonyl)amino]cyclohexanecarbonyl]amino]-1-(4-fluoro-2-methylsulfonylphenyl)piperidin-3-one] | > 810 | 2.69 | > 810 | 177 | 352 | > 810 |
| COc1ccc(N2CCC(NC(=O)C3(NC(=O)c4ccco4)CCCCC3)C(=O)C2)c(S(C)(=O)=O)c1 (stereo not shown) [Example 84, 4-[N-[1-[N-(furan-2-ylcarbonyl)amino]cyclohexanecarbonyl]amino]-1-(4-methoxy-2-methylsulfonylphenyl)piperidin-3-one] | > 1000 | 6.24 | > 1000 | 212 | 986 | > 1000 |
| O=C(NC1(C(=O)NC2CCN(c3ccc(F)cc3N3CCC3=O)CC2=O)CCCCC1)c1ccco1 (stereo not shown) [Example 94, 4-[N-[1-[N-(furan-2-ylcarbonyl)amino]cyclohexanecarbonyl]amino]-1-[4-fluoro-2-(azetidin-2-one-1-yl)phenyl]piperidin-3-one] | > 1000 | – | > 1000 | 197 | 1450 | > 1000 |
| CS(=O)(=O)c1cc(F)ccc1N1CCC(NC(=O)C2(NC(=O)c3ccc(F)cc3)CCCCC2)C(=O)C1 (stereo not shown) [Example 147, 4-[N-[1-[N-(4-fluorobenzoyl)amino]cyclohexanecarbonyl]amino]-1-(4-fluoro-2-methanesulfonylphenyl)piperidin-3-one] | > 1000 | 4.77 | > 1000 | 214 | 249 | > 1000 |
| COc1ccc(N2CCC(NC(=O)C3(NC(=O)c4ccc(F)cc4)CCCCC3)C(=O)C2)c(S(C)(=O)=O)c1 (stereo not shown) [Example 148, 4-[N-[1-[N-(4-fluorobenzoyl)amino]cyclohexanecarbonyl]amino]-1-(2-methanesulfonyl-4-methoxyphenyl)piperidin-3-one] | > 1000 | 3.12 | > 1000 | 141 | 178 | > 1000 |
